Measurements taken from US20240390327A1, “THERAPEUTIC COMPOSITIONS AND METHODS” (Johns Hopkins University, priority 2021, published 2024).
“Also recorded” adds a separate entry of the source.

Columns and labels:
CAM-IVH rats = assay: Intra-aural distance (macrocephaly) in CAM-IVH model of PHHP; format: in vivo, rat; details: treatment P2-P10, followed through P21
Method: For each experiment with a statistical analysis, a power analysis was performed to estimate the required sample size (G*Power 3.1.9.3). We used preliminary and published data to estimate means and standard deviations for each group for the primary outcomes of intra-aural distance, ventriculomegaly, neurodevelopmental assessment, qPCR, and DTI analyses (Farkas et al., 2009; Yung et al., 2011; Baharnoori et al., 2012; Jantzie et al., 2014a,b, 2018; Robinson et al., 2016). Scanning electron microscopy qualitative analysis of EMC was set a priori as two per group. Primary endpoints were set a priori as described in the text, and were daily (P4-P15 and P21) for IAD and neurodevelopment, P5 for ventriculomegaly, P15 for periventricular YAP mRNA, and P21 for remaining assays. No animals were individually excluded except, as noted in the text, those who were removed prior to P21 due to poor health. DTI images from one rat were excluded due to poor image acquisition quality prior to quantification. Rats from both institutions and at least two separate litters were used for all experiments, except rats for SEM were prepared at one institution. Rats from both sexes were randomly assigned to injury (CAM versus sham at E18, IVH versus vehicle at P1) and to treatment group (EPO+MLT or vehicle on P2 for CAM-IVH rats). […]

rats with PCL syndrome = assay: Diffusion tensor imaging in PCL model; format: in vivo, rat; details: 11.7T MRI
Method: Diffusion Tensor Imaging was performed on an 11.7T Bruker MRI scanner. These images were processed to assign directional colors ([…] transverse, blue vertical, and green orthogonal to the plane).

[1] = tested on: rats with PCL syndrome (LPS plus Poly IC); assay: Nociception (mechanical allodynia, thermal hypersensitivity) in Post-COVID Like (PCL) model; format: in vivo, rat; details: chronic pain lasting greater than 2 months
Method: LPS (3 mg/kg ip) is given to prime the immune system of rats on postnatal (P) 45, 46 and P47. Subsequently, Poly IC (2, 3, or 5 mg/kg ip) is given on P55 to mimic a viral exposure. The response to these stimuli are studied in the following acute, subacute and chronic timepoints. Pain and activity in an open field are outcome measures we use routinely to track the development of the PCL syndrome.
For experimental design and development of pel syndrome with cognitive assessment, LPS (3 mg/kg ip) is given to prime the immune system of rats on postnatal (P) 45, 46 and P47. Subsequently, Poly IC (5 mg/kg ip) is given on P55 to mimic a viral exposure. The response to these stimuli are studied in the following acute, subacute and chronic timepoints. Pain and Activity in an Open Field are outcome measures we use routinely to track the development of the PCL syndrome. Similarly, Touchscreen cognitive assessment occurs simultaneously throughout the Acute, SubAcute and Chronic Phases. Using a touchscreen assessment platform, we first assess visual discrimination. We then assess cognitive flexibility through a test of reversal learning, and then a test of attention called 5 choice serial reaction (5CSRTT).
After priming the immune system with systemic lipopolysaccharide (LPS) on postnatal day 45-47, rats receive the viral mimetic poly(I:C) on P55.

naïve rats = assay: EPO+MLT regimen in naïve neonatal rats, unanticipated effects; format: in vivo, rat; details: doses administered the same time of day
Method: To test if EPO+MLT could prevent the onset of PHHP, on P2 CAM+IVH rats were randomized to receive either EPO+MLT or vehicle from P2 (equivalent to approximately 32 weeks human gestation) to P10 (full term in humans). Six doses of EPO (2500 U/kg/dose i.p.) or vehicle were administered on P2-P5, P7 and P9. Nine doses of MLT (20 mg/kg/dose i.p.) or vehicle were administered on P2-P10. A subset of 36 CAM-IVH pups were randomized to receive vehicle, EPO alone, MLT alone, or EPO+MLT to test impact of treatment on macrocephaly. […] To determine if EPO+MLT had any unanticipated effect on normal neurodevelopment, a set of naïve pups underwent EPO+MLT treatment.
Neurodevelopmental battery included nine tests (surface righting, negative geotaxis, cliff aversion, forelimb grasp, audio startle, eye opening, ear twitch, forelimb placement, and air righting) (Farkas et al., 2009; Bahamoori et al., 2012). Since no differences with audio startle or eye opening were noted across groups, these two tests were not included for naïve rats. Observers blinded to injury and treatment group tested 146 rats each day from P4 to P15, and then at P21.
To determine if the progressive macrocephaly and poor cliff aversion performance observed in CAM-IVH rats was preventable, we assessed the efficacy of combined EPO+MLT treatment in the neonatal period in a separate cohort of rats (n=88). […]

PBMCs = assay: PBMC secretome after buprenorphine stimulation in culture; details: P21 PBMCs, 3 h culture; EPO 10 U/mL + MLT 20 μM; naloxone 10 μM
[2] = tested on: patients (adult traumatic brain injury; pediatric and neonatal trials); details: cited from earlier work
[3] = tested on: rats with prenatal injury (TSHI plus intra-amniotic LPS); assay: Open field after prenatal injury (chorioamnionitis model of cerebral palsy); format: in vivo, rat; details: P28-P30 open field
Text: As placental structure and function is of significant clinical importance to neurologic sequelae in preterm survivors (59-61), we use a prenatal model of in utero transient systemic HI (TSHI) and intra-amniotic lipopolysaccharide (LPS) administration in pregnant rats (62-64). This approach capitalizes on an intact maternal-placental-fetal unit and is a model of PBI from extreme preterm birth (<28 weeks of gestation) that mimics dual intrauterine injury from placental underperfusion and chorioamnionitis (65). Briefly, under isoflurane anesthesia, a laparotomy is performed on embryonic day (E) 18. Uterine arteries are clamped for 60 min and followed by intra-amniotic injections of LPS (4 μg/sac; 0111:B4, Sigma, St. Louis, MO, USA) (62, 64, 65). Sham controls undergo anesthesia and laparotomy for 60 min without arterial clamping or LPS injections. Following closure of the laparotomy, dams receive narcotic pain medication, recover, and pups are born vaginally at E22, approximately equal to 30-32 weeks in human gestation. We have previously reported the effects of TSHI and LPS alone, and in concert, on CNS pathological hallmarks, functional motor outcomes, histologic placental injury, and expression of common pro-inflammatory cytokines (63, 64).
When EPO was administered in isolation, it was given from P1 to P5 at 2,000 U/kg/dose as previously published (47, 48, 54, 55, 71, 72). […]

Molecule	intra-aural distance (IAD), progressive macrocephaly (CAM-IVH rats)	white matter microstructural integrity (directional color DTI) (rats with PCL syndrome)	chronic thermal hypersensitivity [1]	impact on the circadian rhythm (naïve rats)	secretion of interferon gamma and IL-6 by PBMCs treated with buprenorphine (PBMCs)	adverse events in pediatric and neonatal EPO trials ([2]; high-dose, extended EPO regimens)	adverse events in meta-analyses of EPO for severe adult traumatic brain injury ([2]; versus placebo)	disinhibition (open field) [3]
COc1ccc2[nH]cc(CCNC(C)=O)c2c1 [MLT, N-acetyl-5-methoxytryptamine]	the IADs were not significantly different compared littermates that received vehicle	the microstructural integrity is altered and the colors are muted	neither ROX nor MLT alone	no impact was evident				
C=CCN1CC[C@]23c4c5ccc(O)c4O[C@H]2C(=O)CC[C@@]3(O)[C@H]1C5 [naloxone]					blocked the secretion of these proinflammatory mediators			
EPO: erythropoietin compound or erythropoietin, in particular human recombinant erythropoietin	the IADs were not significantly different compared littermates that received vehicle					no adverse events have emerged with high-dose, extended EPO regimens in neonatal trials	no adverse events were evident compared to placebo treatment	does not; also recorded: did not improve disinhibition
